# Data published in patent US11279733B2, “Peptide antibiotics” (priority 2017, dated 2022).
# Read-outs that look alike come from different tables or passages of the source. Starred links: 1 amine or outer side, 2 acyl side, 3 side chain; linkers in the order of their positions; H or OH if unused. Positions of bridges follow the written chain, without caps; N, C: chain ends. Non-standard residues stand in square brackets, D forms with d. Residues, ends and D or L forms follow the SMILES beside them. *: point of attachment. X10 = CCCCCCC[C@@H](O)CC(=O)N[C@H](CCN)C(=O)NN(CCN[*:2])C(=O)[*:1]; Decanoyl(3R-OH) = CCCCCCC[C@@H](O)CC(=O)*; X12 = O=C(c1ccn(-c2ccccc2)c(=O)c1)*; Decanoyl = CCCCCCCCCC(=O)*; NH(2-ClPh) = Clc1ccccc1N*; Nonanoyl = CCCCCCCCC(=O)*; dDab = NCC[C@@H](N)C(=O)O; Heptanoyl = CCCCCCC(=O)*; dDap = NC[C@@H](N)C(=O)O; Dab = NCC[C@H](N)C(=O)O; CO = O=C([*:1])[*:2]
# How the values were obtained:
# [1] = tested on: S. aureus ATCC 25923, MSSA
# How it was run: (§1)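 Mid-log cultures grown in Mueller Hinton broth at 37° C were tested by 2-fold broth microdilution at 5×10^5 CFU/mL final. Compounds were dissolved in water and tested over a final range of 32 to 0.015 μg/mL.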
# [2] = tested on: E. coli ATCC 25922
# How it was run: as §1
# [3] = tested on: K. pneumoniae ATCC 700603, MDR
# How it was run: as §1
# [4] = tested on: A. baumannii ATCC 19606
# How it was run: as §1
# [5] = tested on: P. aeruginosa GN_105, PmxR
# How it was run: as §1
# [6] = tested on: P. aeruginosa GN_043, PmxR; conditions: for MIC, P. aeruginosa FADDI-PA070, PmxR: strain name as in Table 11
# How it was run: as §1
# [7] = tested on: K. pneumoniae ATCC BAA-2146, NDM-1 pos
# How it was run: as §1
# [8] = tested on: K. pneumoniae GN_106, PmxR
# How it was run: as §1
# [9] = tested on: A. baumannii GN_093 PmxR
# How it was run: as §1
# [10] = tested on: K. pneumoniae ATCC 13883
# How it was run: as §1
# [11] = tested on: K. pneumoniae GN_102 PmxR
# How it was run: as §1
# [12] = tested on: P. aeruginosa ATCC 27853
# How it was run: as §1
# [13] = Cytotoxicity, resazurin assay, HEK293; conditions: human
# How it was run: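 Fluorescence read-out (excitation 560, emission 590) after a 2 h, 37 °C incubation with 5 μM resazurin, following 24 h compound treatment of cells plated at 4000 per well. CC50 values come from fitting dose–response curves of growth inhibition.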
Structure (SMILES),"MIC P. aeruginosa GN_043, PmxR [6]",CC50 at 24 h [13],"MIC S. aureus ATCC 25923, MSSA ([1]; ATCC 25923)",MIC E. coli ATCC 25922 ([2]; ATCC 25922),"MIC K. pneumoniae ATCC 700603, MDR ([3]; ATCC 700603)",MIC A. baumannii ATCC 19606 ([4]; ATCC 19606),"MIC P. aeruginosa GN_105, PmxR ([5]; GN 105, PmxR)","MIC K. pneumoniae ATCC BAA-2146, NDM-1 pos ([7]; ATCC BAA-2146)","MIC K. pneumoniae GN_106, PmxR ([8]; GN 106, PmxR)",MIC A. baumannii GN_093 PmxR ([9]; GN 093 PmxR),MIC K. pneumoniae ATCC 13883 ([10]; ATCC 13883),MIC K. pneumoniae GN_102 PmxR ([11]; GN 102 PmxR),MIC P. aeruginosa ATCC 27853 ([12]; ATCC 27853),also measured
"CC(C)C[C@@H]1NC(=O)[C@H](CCN)NC(=O)[C@H](CCN)NC(=O)[C@H](CC(C)C)NC(=O)[C@@H](Cc2ccccc2)NC(=O)[C@H](CCN)NC(=O)[C@@H](NC(=O)[C@@H](CN)NC(=O)Nc2ccccc2Cl)CCNC1=O [compound 9188, 2-ClPh-NHCO-D-Dap-cyc[L-Dab-L-Dab-D-Phe-L-Leu-L-Dab-L-Dab-L-Leu]] ({NH(2-ClPh)-CO}-[dDap][Dab][Dab][dF]L[Dab][Dab]L; lactam 2-C)",>16 mg/L,> 300 µM,–,–,–,–,–,–,–,–,–,–,–,"MIC S. aureus ATCC 25923, MSSA ([1]; S. aureus ATCC 25923, MSSA): >16 mg/L; MIC E. coli ATCC 25922 ([2]; E. coli ATCC 25922): 8 mg/L; MIC K. pneumoniae ATCC 700603, MDR ([3]; K. pneumoniae ATCC 700603, MDR): 8 mg/L; MIC A. baumannii ATCC 19606 ([4]; A. baumannii ATCC 19606): >32 mg/L; MIC P. aeruginosa GN_105, PmxR ([5]; P. aeruginosa GN_105, PmxR): >16 mg/L; MIC K. pneumoniae ATCC BAA-2146, NDM-1 pos ([7]; K. pneumoniae ATCC BAA-2146, NDM-1 pos): 8 mg/L; MIC K. pneumoniae GN_106, PmxR ([8]; K. pneumoniae GN_106, PmxR): >16 mg/L; MIC A. baumannii GN_093 PmxR ([9]; A. baumannii GN_093 PmxR): >16 mg/L; MIC K. pneumoniae ATCC 13883 ([10]; K. pneumoniae ATCC 13883): 16 mg/L; MIC K. pneumoniae GN_102 PmxR ([11]; K. pneumoniae GN_102 PmxR): >16 mg/L; MIC P. aeruginosa ATCC 27853 ([12]; P. aeruginosa ATCC 27853): 2 mg/L"
"CC(C)C[C@@H]1NC(=O)[C@H](CCN)NC(=O)[C@H](CCN)NC(=O)[C@H](CC(C)C)NC(=O)[C@@H](Cc2ccccc2)NC(=O)[C@H](CCN)NC(=O)[C@@H](NC(=O)[C@@H](CN)NC(=O)c2ccn(-c3ccccc3)c(=O)c2)CCNC1=O [compound 9189, 4-(1-Ph-pyridinone)-D-Dap-cyc[L-Dab-L-Dab-D-Phe-L-Leu-L-Dab-L-Dab-L-Leu]] (X12-[dDap][Dab][Dab][dF]L[Dab][Dab]L; lactam 2-C)",4 mg/L,> 300 µM,>32 mg/L,>32 mg/L,32 mg/L,>32 mg/L,16 mg/L,32 mg/L,>32 mg/L,>32 mg/L,>32 mg/L,>32 mg/L,4 mg/L,–
"CCCCCCC(=O)N[C@H](CN)C(=O)N[C@H]1CCNC(=O)[C@H](CC(C)C)NC(=O)[C@H](CCN)NC(=O)[C@H](CCN)NC(=O)[C@H](CC(C)C)NC(=O)[C@@H](Cc2ccccc2)NC(=O)[C@H](CCN)NC1=O [compound 9190, nC6CO-D-Dap-cyc[L-Dab-L-Dab-D-Phe-L-Leu-L-Dab-L-Dab-L-Leu]] (Heptanoyl-[dDap][Dab][Dab][dF]L[Dab][Dab]L; lactam 2-C)",4 mg/L,> 300 µM,>32 mg/L,8 mg/L,16 mg/L,>32 mg/L,8 mg/L,16 mg/L,>32 mg/L,>32 mg/L,16 mg/L,32 mg/L,2 mg/L,–
"CCCCCCCCC(=O)N[C@H](CN)C(=O)N[C@H]1CCNC(=O)[C@H](CC(C)C)NC(=O)[C@H](CCN)NC(=O)[C@H](CCN)NC(=O)[C@H](CC(C)C)NC(=O)[C@@H](Cc2ccccc2)NC(=O)[C@H](CCN)NC1=O [compound 9191, nC8CO-D-Dap-cyc[L-Dab-L-Dab-D-Phe-L-Leu-L-Dab-L-Dab-L-Leu]] (Nonanoyl-[dDap][Dab][Dab][dF]L[Dab][Dab]L; lactam 2-C)",2 mg/L,> 300 µM,32 mg/L,4 mg/L,8 mg/L,>32 mg/L,2 mg/L,8 mg/L,16 mg/L,>32 mg/L,8 mg/L,8 mg/L,4 mg/L,–
"CCCCCCCCCC(=O)N[C@H](CN)C(=O)N[C@H]1CCNC(=O)[C@H](CC(C)C)NC(=O)[C@H](CCN)NC(=O)[C@H](CCN)NC(=O)[C@H](CC(C)C)NC(=O)[C@@H](Cc2ccccc2)NC(=O)[C@H](CCN)NC1=O [compound 9192, nC9CO-D-Dap-cyc[L-Dab-L-Dab-D-Phe-L-Leu-L-Dab-L-Dab-L-Leu]] (Decanoyl-[dDap][Dab][Dab][dF]L[Dab][Dab]L; lactam 2-C)",4 mg/L,224 µM,8 mg/L,2 mg/L,8 mg/L,32 mg/L,2 mg/L,8 mg/L,8 mg/L,4 mg/L,8 mg/L,8 mg/L,4 mg/L,–
"CCCCCCC[C@@H](O)CC(=O)N[C@H](CCN)C(=O)N[C@H]1CCNC(=O)[C@H](CC(C)C)NC(=O)[C@H](CCN)NC(=O)[C@H](CCN)NC(=O)[C@@H](Cc2ccccc2)NC(=O)[C@H](CC(C)C)NC(=O)[C@H](CCN)NC1=O [compound 9194, 3(R)-OH-nC9CO-D-Dab-cyc[L-Dab-L-Dab-L-Leu-D-Phe-L-Dab-L-Dab-L-Leu]] ({Decanoyl(3R-OH)}-[dDab][Dab][Dab]L[dF][Dab][Dab]L; lactam 2-C)",>32 mg/L,> 300 µM,32 mg/L,32 mg/L,>32 mg/L,>32 mg/L,>32 mg/L,>32 mg/L,>32 mg/L,>32 mg/L,>32 mg/L,>32 mg/L,32 mg/L,–
"CCCCCCC[C@@H](O)CC(=O)N[C@H](CCN)C(=O)N[C@H]1CCNC(=O)N(CC(C)C)NC(=O)[C@H](CCN)NC(=O)[C@H](CCN)NC(=O)[C@H](CC(C)C)NC(=O)[C@@H](Cc2ccccc2)NC(=O)[C@@H](CCN)NC1=O [compound 9416, 3(R)OH-nC9CO-D-Dab-cyc[L-Dab-L-Dab-D-Phe-L-Leu-L-Dab-L-Dab-(aza-Leu)]]",–,> 300 µM,32 mg/L,16 mg/L,16 mg/L,>32 mg/L,–,16 mg/L,–,–,16 mg/L,–,4 mg/L,"MIC P. aeruginosa PA9704, PmxR ([5]; GN 105, PmxR): >32 mg/L; MIC, P. aeruginosa FADDI-PA070, PmxR [6]: >32 mg/L; MIC K. pneumoniae Cl 183-16357-20352, PmxR ([8]; GN 106, PmxR): >32 mg/L; MIC A. baumannii Cl Ptyela 10073 4512:2, PmxR ([9]; GN 093 PmxR): >32 mg/L; MIC K. pneumoniae Cl Koprana 10065 0661:1 PmxR ([11]; GN 102 PmxR): >32 mg/L"
"CCCCCCC[C@@H](O)CC(=O)N[C@H](CCN)C(=O)NN1CCNC(=O)[C@H](CC(C)C)NC(=O)[C@H](CCN)NC(=O)[C@H](CCN)NC(=O)[C@H](CC(C)C)NC(=O)[C@@H](Cc2ccccc2)NC(=O)[C@H](CCN)NC1=O [compound 9417, 3(R)OH-nC9CO-D-Dab-cyc[(aza-Dab)-L-Dab-D-Phe-L-Leu-L-Dab-L-Dab-L-Leu]] ([Dab][dF]L[Dab][Dab]L; linker N-C via X10)",–,> 300 µM,8 mg/L,>32 mg/L,>32 mg/L,>32 mg/L,–,>32 mg/L,–,–,>32 mg/L,–,16 mg/L,"MIC P. aeruginosa PA9704, PmxR ([5]; GN 105, PmxR): >32 mg/L; MIC, P. aeruginosa FADDI-PA070, PmxR [6]: >32 mg/L; MIC K. pneumoniae Cl 183-16357-20352, PmxR ([8]; GN 106, PmxR): >32 mg/L; MIC A. baumannii Cl Ptyela 10073 4512:2, PmxR ([9]; GN 093 PmxR): >32 mg/L; MIC K. pneumoniae Cl Koprana 10065 0661:1 PmxR ([11]; GN 102 PmxR): >32 mg/L"
